Results reported in ChEMBL document CHEMBL4270561, “Biological activity of doubly modified salinomycin analogs - Evaluation in vitro and ex vivo” (Eur J Med Chem, 2018).
Calls of active or inactive are those of the source. The rule behind the calls is not given here.

Tests used:
[1] = Antiproliferative activity against human ALL5 cells after 120 hrs by MTT assay; assay type: functional, cell-based; settings: ALL5, 120 h
[2] = Antiproliferative activity against human LoVo/DX cells after 72 hrs by SRB assay; assay type: functional, cell-based
MCF7 = assay: Antiproliferative activity against human MCF7 cells after 72 hrs by SRB assay; assay type: functional, cell-based; settings: MCF7, 72 h
LoVo [3] = assay: Antiproliferative activity against human LoVo cells at 100 ug/ml after 72 hrs by SRB assay relative to control; assay type: functional
JIMT-1 [4] = assay: Antiproliferative activity against human JIMT1 cells at 100 ug/ml after 72 hrs by SRB assay relative to control; assay type: functional
SK-BR-3 [5] = assay: Antiproliferative activity against human SK-BR-3 cells at 100 ug/ml after 72 hrs by SRB assay relative to control; assay type: functional
MCF-10A [6] = assay: Antiproliferative activity against human MCF10A cells at 100 ug/ml after 72 hrs by SRB assay relative to control; assay type: cell-based
[7] = Cell cycle arrest in human ALL5 cells assessed as accumulation at sub-G1 phase at 5 times antiproliferative IC50 after 24 hrs by propidium iodide staining based flow cytometry (reference value: 6.07%); assay type: functional
[8] = Cell cycle arrest in human ALL5 cells assessed as accumulation at G0/G1 phase at 5 times antiproliferative IC50 after 24 hrs by propidium iodide staining based flow cytometry (reference value: 79.7%); assay type: functional
[9] = Cell cycle arrest in human ALL5 cells assessed as accumulation at S-phase at 5 times antiproliferative IC50 after 24 hrs by propidium iodide staining based flow cytometry (reference value: 6.76%); assay type: functional
[10] = Cell cycle arrest in human ALL5 cells assessed as accumulation at G2/M-phase at 5 times antiproliferative IC50 after 24 hrs by propidium iodide staining based flow cytometry (reference value: 7.98%); assay type: functional
[11] = Cell cycle arrest in human ALL5 cells assessed as accumulation at sub-G1 phase at 5 times antiproliferative IC50 after 48 hrs by propidium iodide staining based flow cytometry (reference value: 7.8%); assay type: functional
[12] = Cell cycle arrest in human ALL5 cells assessed as accumulation at G0/G1 phase at 5 times antiproliferative IC50 after 48 hrs by propidium iodide staining based flow cytometry (reference value: 69.6%); assay type: functional
[13] = Cell cycle arrest in human ALL5 cells assessed as accumulation at S-phase at 5 times antiproliferative IC50 after 48 hrs by propidium iodide staining based flow cytometry (reference value: 9.82%); assay type: functional
[14] = Cell cycle arrest in human ALL5 cells assessed as accumulation at G2/M-phase at 5 times antiproliferative IC50 after 48 hrs by propidium iodide staining based flow cytometry (reference value: 13.2%); assay type: functional
[15] = Cell cycle arrest in human ALL5 cells assessed as accumulation at sub-G1 phase at 5 times antiproliferative IC50 after 96 hrs by propidium iodide staining based flow cytometry (reference value: 12%); assay type: functional
[16] = Cell cycle arrest in human ALL5 cells assessed as accumulation at G0/G1 phase at 5 times antiproliferative IC50 after 96 hrs by propidium iodide staining based flow cytometry (reference value: 69.8%); assay type: functional
[17] = Cell cycle arrest in human ALL5 cells assessed as accumulation at S-phase at 5 times antiproliferative IC50 after 96 hrs by propidium iodide staining based flow cytometry (reference value: 7.52%); assay type: functional
[18] = Cell cycle arrest in human ALL5 cells assessed as accumulation at G2/M-phase at 5 times antiproliferative IC50 after 96 hrs by propidium iodide staining based flow cytometry (reference value: 11.1%); assay type: functional
Homo sapiens [19] = species on record: Homo sapiens; assay: Induction of apoptosis in human ALL5 cells assessed as increase in cleaved PARP expression at 9.5 uM up to 48 hrs by immunoblot analysis; assay type: functional, cell-based
Homo sapiens [20] = species on record: Homo sapiens; assay: Induction of apoptosis in human ALL5 cells assessed as increase in cleaved PARP expression at 9.5 uM after 96 hrs by immunoblot analysis; assay type: functional, cell-based
Homo sapiens [21] = species on record: Homo sapiens; assay: Induction of apoptosis in human ALL5 cells assessed as increase in p53 expression at 9.5 uM up to 96 hrs by immunoblot analysis; assay type: functional, cell-based
LoVo [22] = assay: Antiproliferative activity against human LoVo cells after 72 hrs by SRB assay; assay type: functional, cell-based
JIMT-1 [23] = assay: Antiproliferative activity against human JIMT1 cells after 72 hrs by SRB assay; assay type: functional, cell-based; settings: JIMT-1, 72 h
SK-BR-3 [24] = assay: Antiproliferative activity against human SK-BR-3 cells after 72 hrs by SRB assay; assay type: functional, cell-based; settings: SK-BR-3, 72 h
[25] = Resistance index, ratio of IC50 for human LoVo/DX cells to IC50 for human LoVo cells; assay type: functional
MCF-10A [26] = assay: Antiproliferative activity against human MCF10A cells after 72 hrs by SRB assay; assay type: cell-based
[27] = Antiproliferative activity against human ALL5 cells at 10 uM after 120 hrs by MTT assay relative to control; assay type: functional
[28] = Selectivity index, ratio of IC50 for human MCF10A cells to IC50 for human LoVo/DX cells; assay type: toxicity; settings: MCF10A cells versus LoVo/DX cells, read-out: Ratio IC50
[29] = Selectivity index, ratio of IC50 for human MCF10A cells to IC50 for human LoVo cells; assay type: toxicity; settings: MCF10A cells versus LoVo cells, read-out: Ratio IC50
[30] = Selectivity index, ratio of IC50 for human MCF10A cells to IC50 for human JIMT1 cells; assay type: toxicity; settings: MCF10A cells versus JIMT1 cells, read-out: Ratio IC50
[31] = Selectivity index, ratio of IC50 for human MCF10A cells to IC50 for human SK-BR-3 cells; assay type: toxicity; settings: MCF10A cells versus SK-BR-3 cells, read-out: Ratio IC50
[32] = Selectivity index, ratio of IC50 for human MCF10A cells to IC50 for human MCF7 cells; assay type: toxicity; settings: MCF10A cells versus MCF7 cells, read-out: Ratio IC50
Homo sapiens [33] = species on record: Homo sapiens; assay: Induction of apoptosis in human ALL5 cells assessed as increase in cleaved PARP expression at 0.2 uM up to 96 hrs by immunoblot analysis; assay type: functional, cell-based
Homo sapiens [34] = species on record: Homo sapiens; assay: Induction of apoptosis in human ALL5 cells assessed as increase in p53 expression at 0.2 uM up to 96 hrs by immunoblot analysis; assay type: functional, cell-based
Breast carcinoma cell [35] = assay: Ex vivo antitumor activity against patient derived breast cancer tissue assessed as increase in number of dead tumor cells at 6.2 uM by H and E staining based immunohistochemical analysis; assay type: functional; settings: Homo sapiens, TDE = time-dependent effect
Breast carcinoma cell [36] = assay: Ex vivo antitumor activity against patient derived breast cancer tissue assessed as decrease in tumor cell proliferation at 6.2 uM by Ki-67 staining based immunohistochemical analysis; assay type: functional; settings: Homo sapiens, TDE = time-dependent effect
[37] = Selectivity index, ratio of IC50 for human MCF10A cells to IC50 for human ALL5 cells; assay type: toxicity; settings: MCF10A cells versus ALL5 cells, read-out: Ratio IC50

Row | SMILES | IC50 [1] [µM] | IC50 [2] [µM] | IC50 (MCF7) [µM] | Activity (MCF-10A [6]) | Activity [7] [%] | Activity [8] [%] | Activity [9] [%] | Activity [10] [%] | Activity [11] [%] | Activity [12] [%] | Activity [13] [%] | Activity [14] [%] | Activity [15] [%] | Activity [16] [%] | Activity [17] [%] | Activity [18] [%] | IC50 (LoVo [22]) [µM] | IC50 (JIMT-1 [23]) [µM] | IC50 (SK-BR-3 [24]) [µM] | Ratio IC50 [25] | further results
1 | C#CCOC(=O)[C@H](CC)[C@H]1CC[C@H](C)[C@H]([C@@H](C)[C@H](O)[C@H](C)C(=O)[C@H](CC)[C@H]2O[C@]3(C=C[C@@H](OC(=O)OCC)[C@]4(CC[C@@](C)([C@H]5CC[C@](O)(CC)[C@H](C)O5)O4)O3)[C@H](C)C[C@@H]2C)O1 | 1.9 | 8.1 | 38 | <= 50% | 4.82 | 81.2 | 5.6 | 8.79 | 10.6 | 75.6 | 5.9 | 8.29 | 19.8 | 67.8 | 5.03 | 7.59 | – | – | – | – | Activity (LoVo [3]): <=50%; Activity (JIMT-1 [4]): <=50%; Activity (SK-BR-3 [5]): <=50%; Activity (Homo sapiens [19]): inactive; Activity (Homo sapiens [20]): Active; Activity (Homo sapiens [21]): Active
2 | CCOC(=O)O[C@@H]1C=C[C@]2(O[C@H]([C@@H](CC)C(=O)[C@@H](C)[C@@H](O)[C@H](C)[C@@H]3O[C@@H]([C@@H](CC)C(=O)NCCc4ccc(F)cc4)CC[C@@H]3C)[C@@H](C)C[C@H]2C)O[C@@]12CC[C@@](C)([C@H]1CC[C@](O)(CC)[C@H](C)O1)O2 | 3.7 | 6.5 | 3.9 | <= 50% | 6.39 | 82.5 | 4.95 | 6.54 | 7.78 | 86.4 | 1.02 | 4.85 | 27.5 | 69.4 | 1.35 | 1.94 | 4.7 | 7 | 9.9 | 1.4 | –
3 | C#CCOC(=O)[C@H](CC)[C@H]1CC[C@H](C)[C@H]([C@@H](C)[C@H](O)[C@H](C)C(=O)[C@H](CC)[C@H]2O[C@]3(C=C[C@@H](OC(C)=O)[C@]4(CC[C@@](C)([C@H]5CC[C@](O)(CC)[C@H](C)O5)O4)O3)[C@H](C)C[C@@H]2C)O1 | 2.6 | 5.2 | 7.4 | <= 50% | 5.15 | 80.2 | 5.99 | 9.12 | 9.68 | 73.5 | 5.62 | 11.5 | 26.8 | 57.7 | 5.06 | 10.6 | 12 | 27 | – | 0.43 | Activity (SK-BR-3 [5]): <=50%
4 | C#CCOC(=O)[C@H](CC)[C@H]1CC[C@H](C)[C@H]([C@@H](C)[C@H](O)[C@H](C)C(=O)[C@H](CC)[C@H]2O[C@]3(C=C[C@@H](OC(=O)NCC)[C@]4(CC[C@@](C)([C@H]5CC[C@](O)(CC)[C@H](C)O5)O4)O3)[C@H](C)C[C@@H]2C)O1 | 6.9 | 3.4 | 5 | <= 50% | 6.58 | 78.8 | 5.16 | 9.7 | 19.6 | 61.1 | 5.8 | 13.8 | 43.6 | 42 | 3.67 | 10.9 | 5.2 | 7.4 | 25 | 0.65 | –
5 | C#CCNC(=O)[C@H](CC)[C@H]1CC[C@H](C)[C@H]([C@@H](C)[C@H](O)[C@H](C)C(=O)[C@H](CC)[C@H]2O[C@]3(C=C[C@@H](O)[C@]4(CC[C@@](C)([C@H]5CC[C@](O)(CC)[C@H](C)O5)O4)O3)[C@H](C)C[C@@H]2C)O1 | – | 3.1 | 10 | – | – | – | – | – | – | – | – | – | – | – | – | – | 7.7 | 29 | 31 | 0.4 | IC50 (MCF-10A [26]): 62 µM; Activity [27]: <=50%; selectivity ratio [28]: 20; selectivity ratio [29]: 8.1; selectivity ratio [30]: 2.1; selectivity ratio [31]: 2; selectivity ratio [32]: 6.2
6 | COc1cccc2c1C(=O)c1c(O)c3c(c(O)c1C2=O)C[C@@](O)(C(=O)CO)C[C@@H]3O[C@H]1C[C@H](N)[C@H](O)[C@H](C)O1 [DOXORUBICIN] | 0.04 | 10 | 0.26 | – | 8.94 | 78.2 | – | 8.96 | 27.4 | 66.8 | 3.23 | 2.76 | 62.7 | 31.6 | – | 2.16 | 0.24 | 0.59 | 0.37 | – | IC50 (MCF-10A [26]): 0.58 µM; Activity (Homo sapiens [33]): Active; Activity (Homo sapiens [34]): Active
7 | CC[C@@H](C(=O)[C@@H](C)[C@@H](O)[C@H](C)[C@@H]1O[C@@H]([C@@H](CC)C(=O)OCC(F)(F)F)CC[C@@H]1C)[C@H]1O[C@]2(C=C[C@@H](OC(C)=O)[C@]3(CC[C@@](C)([C@H]4CC[C@](O)(CC)[C@H](C)O4)O3)O2)[C@H](C)C[C@@H]1C | – | 18 | 12 | <= 50% | – | – | – | – | – | – | – | – | – | – | – | – | 8.7 | 39 | – | 2.1 | Activity [27]: <=50%; Activity (SK-BR-3 [5]): <=50%
8 | CC[C@@H](C(=O)[C@@H](C)[C@@H](O)[C@H](C)[C@@H]1O[C@@H]([C@@H](CC)C(=O)O)CC[C@@H]1C)[C@H]1O[C@]2(C=C[C@@H](O)[C@]3(CC[C@@](C)([C@H]4CC[C@](O)(CC)[C@H](C)O4)O3)O2)[C@H](C)C[C@@H]1C [SALINOMYCIN] | 2.4 | 0.69 | 1.5 | – | – | – | – | – | – | – | – | – | – | – | – | – | 0.44 | 1.3 | 0.89 | 1.6 | IC50 (MCF-10A [26]): 46 µM; Activity (Breast carcinoma cell [35]): Tde; Activity (Breast carcinoma cell [36]): Tde; selectivity ratio [28]: 67; selectivity ratio [37]: 19; selectivity ratio [29]: 105; selectivity ratio [30]: 35; selectivity ratio [31]: 52; selectivity ratio [32]: 31
